Reference: publication PMC9234671, “Molecular determinants of αVβ5 localization in flat clathrin lattices – role of αVβ5 in cell adhesion and proliferation” (Journal of Cell Science, 2022)

Tests used:
[1] = system: integrin β5 localization in PA-JEB/β4 keratinocytes; test: Immunofluorescence: integrin β5 clustering in FAs/FCLs, PA-JEB/β4; type: cell-based, human
Description: Fig. 3. Serine 759 and 762 are involved in regulating the localization of integrin β5. (A–C) Integrin β5 containing S759/762E or S759/762A mutations (A) were expressed in β5-deficient PA-JEB/β4 keratinocytes and the subcellular distribution of β5 was compared to β5-deficient keratinocytes expressing wild-type (WT) β5. Merged images show integrin β5 (green), vinculin (B) or clathrin (C) (red), actin (blue) and the cell nuclei (cyan). (D,E) Analysis of wild-type versus mutant integrin β5 clustering in FAs or FCLs. (F–I) PA-JEB/β4 keratinocytes were grown in 10% FCS-supplemented DMEM culture medium overnight and then treated with 5 nM calyculin A (Cal.A) or DMSO (vehicle control) for 30 min prior to fixation. Merged images show integrin β5 (green), vinculin (F) or clathrin (H) (red), actin (blue) and the cell nuclei (cyan), quantifications of β5 clustering in FAs or FCLs are shown in G,I. (J,K) Analysis of integrin β5 clustering in FAs or FCLs in PA-JEB keratinocytes after treatment with Cal.A. Representative confocal microscopy images are shown in Fig. S3. Scale bars: 20 μm. Data were obtained from three independent experiments. Total cells analyzed per condition: 109 (WT), 116 (S>E), 103 (S>A) (D), 81 (WT), 77 (S>E), 101 (S>A) (E), 126 and 123 (G), 111 and 101 (I), 106 and 102 (J), 115 and 109 (K). ****P<0.0001 (Mann–Whitney U-test). Box plots range from the 25th to 75th percentile; central line indicates the median; whiskers show smallest to largest value.
PA-JEB/β4 keratinocytes were seeded on glass coverslips and cultured in complete KGM medium for 24 h, and then treated with DMEM plus 10% FCS for 24 h. Other cell lines were seeded on glass coverslips and cultured in DMEM plus 10% FCS. Cells were fixed with 2% paraformaldehyde (PFA) for 10 min, permeabilized with 0.2% Triton X-100 for 5 min, and blocked with PBS containing 2% bovine serum albumin (BSA; Sigma) for at least 30 min. Next, cells were incubated with the primary antibodies for 1 h at room temperature. Cells were washed three times before incubation with the secondary antibodies for 1 h. Additionally, nuclei were stained with DAPI, and filamentous actin was visualized using Alexa Fluor 488 or 647-conjugated phalloidin (Invitrogen). After three washing steps with PBS, the coverslips were mounted onto glass slides in Mowiol. Images were obtained using a Leica TCS SP5 confocal microscope with a 63× (NA 1.4) oil objective.
Image analysis was performed using Fiji (ImageJ) ([Schindelin et al., 2012]; [Schneider et al., 2012]). To quantify integrin clustering in FAs (based on vinculin staining) versus FCLs (clathrin staining), background was subtracted in both channels using a bilateral filter and the region of interest (ROI) was selected at the cell periphery. Colocalization of integrin clusters and FAs or FCLs was determined using the Image Calculator (command ‘multiply’) on both channels and calculating the area of overlapping clusters as a percentage of the total integrin cluster area per cell using the Analyze Particle function.

[2] = system: β5 Ser-759/762 phosphorylation; test: Mass spectrometry of β5 immunoprecipitates: β5 phosphorylation; type: cell-based, human
Description: Journal of Cell Science | Peer review history […]
opinion most interesting findings linked to the serine/threonine phosphorylation sites.
Response: We have now changed the t itle and abstract to better emphasize the interesting and novel findings (page 1 -2).
Reviewer 2 Comments for the author...
There are some points that the authors may want to consider: […]
only very limited binding to kindlin-1/2. Furthermore, the phosphomimetic β5-S759/762E mutant promotes localization in FCLs. In the BirA experiments, the authors detect no biotinylation of clathrin adaptors ARH and NUMB with the b5/b1 or b5/b1 chimeras, in contrast to the b5 wt. Is this also the case for clathrin or AP2-mu, established components of FCL?
Response: We thank the reviewer for his/her useful remark. […]
The peptide pull-downs in figure 2 are a little problematic given the high Bg binding of NUMB and ARH to the b1 scr peptide. […] In addition, quantifications from several biological repeats of the pulldowns might help t o establish the reproducibility and statistical significance of the differences indicated by the authors in the text. […]
Figure 3. […] Specifically, we assessed whether phosphorylation of […]
of β5 at S759 and S762 could be detected (discussed in the middle of page 13).
Figure 4. is there a reason for using talin rather than vinculin staining as a FA marker here? […] Could this be analysed and mentioned in the text? […]

Compound: COC[C@@H]([C@H](O)[C@H](O)C(=O)NCC[C@H](C)c1nc(/C=C/C[C@@H]2O[C@]3(C[C@@H](O)[C@@H]2C)O[C@H]([C@H](C[C@H](O)[C@H](C)[C@H](O)[C@H](C)/C=C(C)/C(C)=C/C=C/C(C)=C\C#N)OC)[C@H](OP(=O)(O)O)C3(C)C)co1)N(C)C [calyculin A]
- localization of integrin β5 in FAs, PA-JEB/β4 ([1]; 5 nM calyculin A versus DMSO, 30 min, 10% FCS DMEM, colocalization with vinculin, three independent experiments): decreased the localization of integrin β5 in FAs
- redistribution of the integrin ([1]; calyculin A treatment, summary in discussion): only led to a minor redistribution of the integrin
- detection of β5 phosphorylation at S759 and S762 ([2]; 25 nM calyculin for 20 min, PA-JEB/β4 keratinocytes, anti-β5 immunoprecipitation, MS/MS): no phosphorylation
- detection of β5 phosphorylation at Ser-759/762 ([2]; calyculin A-treated cells, mass spectrometry of β5 immunoprecipitates): unsuccessful
